Data published in US8026229B2, “Antitumor-active 2-alkoxyestradiol sulfamates” (Sterix Limited, priority 2001, dated 2011).
pIC50: −log10 of the molar value.

Experiments:
[1] = biological target: T1, microtubular protein (tubulin) from porcine brains (Sus scrofa, UniProt P02550+P02554); assay: Inhibition of tubulin polymerization in vitro (turbidimetry at 340 nm); format: biochemical; settings: microtubular protein 1 mg/ml, 0.25 mM GTP, 37° C.
T1 construct: Microtubular protein was purified by the method of Shelanski et al; from tissue; host or cells: porcine brain
T1 sequence (P02554 whole entry): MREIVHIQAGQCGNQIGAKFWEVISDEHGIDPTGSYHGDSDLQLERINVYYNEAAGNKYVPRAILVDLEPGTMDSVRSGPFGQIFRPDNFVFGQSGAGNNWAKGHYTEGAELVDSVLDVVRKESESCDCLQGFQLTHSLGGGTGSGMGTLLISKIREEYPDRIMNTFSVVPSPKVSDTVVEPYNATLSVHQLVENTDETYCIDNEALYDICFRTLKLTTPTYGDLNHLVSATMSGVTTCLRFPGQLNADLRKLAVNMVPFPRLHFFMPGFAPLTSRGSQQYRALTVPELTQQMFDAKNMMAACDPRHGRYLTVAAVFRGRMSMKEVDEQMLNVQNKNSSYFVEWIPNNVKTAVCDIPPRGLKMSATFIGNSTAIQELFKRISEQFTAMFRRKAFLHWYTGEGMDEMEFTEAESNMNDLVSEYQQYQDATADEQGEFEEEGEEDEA
T1 sequence (P02550 whole entry): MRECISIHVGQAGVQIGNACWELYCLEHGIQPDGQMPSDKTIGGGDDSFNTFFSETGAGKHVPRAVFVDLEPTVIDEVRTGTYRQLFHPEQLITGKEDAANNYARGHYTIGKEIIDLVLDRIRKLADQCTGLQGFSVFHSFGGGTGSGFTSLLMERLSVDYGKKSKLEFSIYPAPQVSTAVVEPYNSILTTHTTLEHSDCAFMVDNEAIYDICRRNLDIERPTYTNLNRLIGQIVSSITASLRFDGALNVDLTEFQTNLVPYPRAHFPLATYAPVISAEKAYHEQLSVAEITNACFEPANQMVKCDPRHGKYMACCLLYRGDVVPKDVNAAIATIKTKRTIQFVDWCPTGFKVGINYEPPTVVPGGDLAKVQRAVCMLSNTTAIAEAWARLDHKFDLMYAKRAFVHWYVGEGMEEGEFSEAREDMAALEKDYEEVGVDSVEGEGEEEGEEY
Method: The inventive compounds were tested in various models. The inventive compounds of general formula I are remarkable in that they inhibit tubulin polymerization more than does 2-methoxyestradiol. The effect on tubulin polymerization was tested in vitro in the following way:
Microtubular protein was purified by the method of Shelanski et al. (Shelanski et al., Proc. Natl. Acad. Sci. USA 1973, 70, 765-8) via cyclic assembly/disassembly from porcine brains. The buffer system used had the following composition: 20 mM PIPES (1,4-piperazinediethanesulfonic acid, pKa 6.8), 80 mM NaCl, 0.5 mM MgCl2, 1 mM EGTA (ethylene glycol bis(2-aminoethyl)tetraacetic acid). Protein concentrations of 1 mg/ml (approx. […] tubulin) were used to test the active substance. The protein was determined by the method of Lowry (Lowry et al., J. Biol. Chem. 1951, 193, 265-75) using bovine serum albumin as standard. The assembly of the microtubuli was carried out in the presence of 0.25 mM GTP and heating of the samples to 37° C.
Microtubulus formation was checked using turbidimetry at a wavelength of 340 nm.
The active substances were tested by adding them at the beginning of the assembly or at the state of equilibrium. Their effectiveness is characterized by deviations in the turbidity curves from those of the control. To check the effect and evaluate the turbidity values measured, a transmission electron microscopic examination (CEM 902 A, Zeiss, Oberkochen, Germany) of the assemblate was always carried out after negative staining with 1% aqueous uranyl acetate.

tubulin = settings: literature, J. Med. Chem. 1997, 40, 2323-2334; cited from earlier work

For `COc1cc2c(cc1O)CCC1C2CC[C@@]2(C)C1CC[C@@H]2O` (stereo partly shown) [2-Methoxyestradiol], the pIC50 [1] was < 5.52.

With `COc1cc2c(cc1OS(N)(=O)=O)CCC1C2CC[C@]2(C)C(=O)CCC12` (stereo partly shown) [2-Methoxyestrone-3-sulfamate] the pIC50 [1] was 5.80.

In the case of `CCOc1cc2c(cc1O)CC[C@@H]1[C@@H]2CC[C@]2(C)[C@@H](O)CC[C@@H]12` [2-ethoxyestradiol], the “Activity in inhibition of tubulin polymerization compared with 2-methoxyestradiol” value (tubulin) is listed as “higher than that of 2-methoxyestradiol”.

For `COc1cc2c(cc1OS(N)(=O)=O)CC[C@@H]1[C@@H]2CC[C@]2(C)[C@@H](O)CC[C@@H]12` [Example 1, 2-Methoxy-17β-hydroxy-estra-1,3,5(10)-trien-3-yl sulfamate], the pIC50 [1] was 6.00.
